From ChEMBL document CHEMBL1629662, “Antimicrobial activity of prulifloxacin tested against a worldwide collection of gastroenteritis-producing pathogens, including those causing traveler's diarrhea” (2009)
≈ marks a conversion by molar mass, not a printed value.

What was measured:
[1] = test system: Escherichia coli; test: Antibacterial activity against Escherichia coli by broth microdilution method; type: functional
[2] = test system: Escherichia coli; test: Antibacterial activity against Escherichia coli assessed as percent susceptible isolates by broth microdilution method; type: functional
[3] = test system: Escherichia coli; test: Antibacterial activity against Escherichia coli assessed as percent resistant isolates by broth microdilution method; type: functional
[4] = test system: Salmonella typhimurium; test: Antibacterial activity against Salmonella enterica serovar Typhimurium by broth microdilution method; type: functional, Salmonella enterica subsp. enterica serovar Typhimurium
[5] = test system: Salmonella typhimurium; test: Antibacterial activity against Salmonella enterica serovar Typhimurium assessed as percent resistant isolates by broth microdilution method; type: functional, Salmonella enterica subsp. enterica serovar Typhimurium; settings: pooled result: one value given for 8 cell lines, strains, targets or settings
[6] = test system: Salmonella enteritidis; test: Antibacterial activity against Salmonella enterica serovar Enteritidis by broth microdilution method; type: functional, Salmonella enterica subsp. enterica serovar Enteritidis
[7] = test system: Salmonella enteritidis; test: Antibacterial activity against Salmonella enterica serovar Enteritidis assessed as percent susceptible isolates by broth microdilution method; type: functional, Salmonella enterica subsp. enterica serovar Enteritidis; settings: pooled result: one value given for 5 cell lines, strains, targets or settings
[8] = test system: Salmonella typhi; test: Antibacterial activity against Salmonella enterica serovar Typhi assessed as percent susceptible isolates by broth microdilution method; type: functional, Salmonella enterica subsp. enterica serovar Typhi
[9] = test system: Salmonella paratyphi; test: Antibacterial activity against Salmonella enterica serovar Paratyphi by broth microdilution method; type: functional, Salmonella enterica subsp. enterica serovar Paratyphi A
[10] = test system: Salmonella paratyphi; test: Antibacterial activity against Salmonella enterica serovar Paratyphi assessed as percent susceptible isolates by broth microdilution method; type: functional, Salmonella enterica subsp. enterica serovar Paratyphi A
[11] = test system: Shigella sonnei; test: Antibacterial activity against Shigella sonnei by broth microdilution method; type: functional
[12] = test system: Shigella sonnei; test: Antibacterial activity against Shigella sonnei assessed as percent resistant isolates by broth microdilution method; type: functional; settings: pooled result: one value given for 4 cell lines, strains, targets or settings
[13] = test system: Shigella flexneri; test: Antibacterial activity against Shigella flexneri by broth microdilution method; type: functional
[14] = test system: Shigella boydii; test: Antibacterial activity against Shigella boydii by broth microdilution method; type: functional
[15] = test system: Shigella boydii; test: Antibacterial activity against Shigella boydii assessed as percent susceptible isolates by broth microdilution method; type: functional; settings: pooled result: one value given for 3 cell lines, strains, targets or settings
[16] = test system: Shigella dysenteriae; test: Antibacterial activity against Shigella dysenteriae by broth microdilution method; type: functional
[17] = test system: Shigella dysenteriae; test: Antibacterial activity against Shigella dysenteriae assessed as percent susceptible isolates by broth microdilution method; type: functional
[18] = test system: Yersinia enterocolitica; test: Antibacterial activity against Yersinia enterocolitica by broth microdilution method; type: functional
[19] = test system: Yersinia enterocolitica; test: Antibacterial activity against Yersinia enterocolitica assessed as percent susceptible isolates by broth microdilution method; type: functional
[20] = test system: Yersinia enterocolitica; test: Antibacterial activity against Yersinia enterocolitica assessed as percent resistant isolates by broth microdilution method; type: functional
[21] = test system: Yersinia pseudotuberculosis; test: Antibacterial activity against Yersinia pseudotuberculosis by broth microdilution method; type: functional
[22] = test system: Yersinia pseudotuberculosis; test: Antibacterial activity against Yersinia pseudotuberculosis assessed as percent susceptible isolates by broth microdilution method; type: functional
[23] = test system: Aeromonas hydrophila; test: Antibacterial activity against Aeromonas hydrophila by broth microdilution method; type: functional
[24] = test system: Aeromonas hydrophila; test: Antibacterial activity against Aeromonas hydrophila assessed as percent susceptible isolates by broth microdilution method; type: functional
[25] = test system: Aeromonas hydrophila; test: Antibacterial activity against Aeromonas hydrophila assessed as percent resistant isolates by broth microdilution method; type: functional
[26] = test system: Aeromonas caviae; test: Antibacterial activity against Aeromonas caviae by broth microdilution method; type: functional
[27] = test system: Aeromonas caviae; test: Antibacterial activity against Aeromonas caviae assessed as percent susceptible isolates by broth microdilution method; type: functional
[28] = test system: Aeromonas caviae; test: Antibacterial activity against Aeromonas caviae assessed as percent resistant isolates by broth microdilution method; type: functional
[29] = test system: Aeromonas sobria; test: Antibacterial activity against Aeromonas sobria by broth microdilution method; type: functional
[30] = test system: Aeromonas sobria; test: Antibacterial activity against Aeromonas sobria assessed as percent susceptible isolates by broth microdilution method; type: functional
[31] = test system: Aeromonas sobria; test: Antibacterial activity against Aeromonas sobria assessed as percent resistant isolates by broth microdilution method; type: functional
[32] = test system: Aeromonas veronii; test: Antibacterial activity against Aeromonas veronii by broth microdilution method; type: functional
[33] = test system: Aeromonas veronii; test: Antibacterial activity against Aeromonas veronii assessed as percent susceptible isolates by broth microdilution method; type: functional
[34] = test system: Aeromonas veronii; test: Antibacterial activity against Aeromonas veronii assessed as percent resistant isolates by broth microdilution method; type: functional
[35] = test system: Plesiomonas shigelloides; test: Antibacterial activity against Plesiomonas shigelloides by broth microdilution method; type: functional
[36] = test system: Plesiomonas shigelloides; test: Antibacterial activity against Plesiomonas shigelloides assessed as percent susceptible isolates by broth microdilution method; type: functional
[37] = test system: Plesiomonas shigelloides; test: Antibacterial activity against Plesiomonas shigelloides assessed as percent resistant isolates by broth microdilution method; type: functional
[38] = test system: Vibrio cholerae; test: Antibacterial activity against Vibrio cholerae by broth microdilution method; type: functional
[39] = test system: Vibrio parahaemolyticus; test: Antibacterial activity against Vibrio parahaemolyticus by broth microdilution method; type: functional
[40] = test system: Vibrio alginolyticus; test: Antibacterial activity against Vibrio alginolyticus by broth microdilution method; type: functional
[41] = test system: Vibrio fluvialis; test: Antibacterial activity against Vibrio fluvialis by broth microdilution method; type: functional
[42] = test system: Vibrio vulnificus; test: Antibacterial activity against Vibrio vulnificus by broth microdilution method; type: functional
[43] = test system: Vibrio sp.; test: Antibacterial activity against Vibrio sp. by broth microdilution method; type: functional
[44] = test system: Campylobacter jejuni; test: Antibacterial activity against Campylobacter jejuni by broth microdilution method; type: functional
[45] = test system: Campylobacter jejuni; test: Antibacterial activity against Campylobacter jejuni assessed as percent susceptible isolates by broth microdilution method; type: functional; settings: pooled result: one value given for 2 cell lines, strains, targets or settings
[46] = test system: Campylobacter jejuni; test: Antibacterial activity against Campylobacter jejuni assessed as percent resistant isolates by broth microdilution method; type: functional; settings: pooled result: one value given for 2 cell lines, strains, targets or settings
[47] = test system: Campylobacter coli; test: Antibacterial activity against Campylobacter coli by broth microdilution method; type: functional

For `O=C(O)c1cn(C2CC2)c2cc(N3CCNCC3)c(F)cc2c1=O` [CIPROFLOXACIN], the MIC50 [1] was 0.008 µg/mL (≈ 0.0241 µM), the MIC90 [1] was 0.016 µg/mL (≈ 0.0483 µM) and the Activity [2] was 97%. It also gave an Activity [3] of 3%, an MIC50 [4] of 0.008 µg/mL (≈ 0.0241 µM) and an MIC90 [4] of 0.12 µg/mL (≈ 0.362 µM). The Activity [5] was 0%, the MIC50 [6] was 0.008 µg/mL (≈ 0.0241 µM) and the MIC90 [6] was 0.12 µg/mL (≈ 0.362 µM). For the same compound, the Activity [7] was 100%, the Activity [8] was 100% and the MIC [9] was 0.004 µg/mL (≈ 0.0121 µM). The Activity [10] was 100%, the MIC50 [11] was 0.008 µg/mL (≈ 0.0241 µM) and the MIC90 [11] was 0.016 µg/mL (≈ 0.0483 µM). For the same compound, the Activity [12] was 0%, the MIC50 [13] was 0.008 µg/mL (≈ 0.0241 µM) and the MIC90 [13] was 0.016 µg/mL (≈ 0.0483 µM). The MIC50 [14] was 0.008 µg/mL (≈ 0.0241 µM), the MIC90 [14] was 0.016 µg/mL (≈ 0.0483 µM) and the Activity [15] was 100%. It also gave an MIC50 [16] of 0.008 µg/mL (≈ 0.0241 µM), an MIC90 [16] of 0.016 µg/mL (≈ 0.0483 µM) and an Activity [17] of 100%. The MIC50 [18] was 0.016 µg/mL (≈ 0.0483 µM), the MIC90 [18] was 0.03 µg/mL (≈ 0.0905 µM) and the Activity [19] was 100%. The Activity [20] was 0%, the MIC50 [21] was 0.016 µg/mL (≈ 0.0483 µM) and the MIC90 [21] was 0.03 µg/mL (≈ 0.0905 µM). For the same compound, the Activity [22] was 100%, the MIC50 [23] was 0.004 µg/mL (≈ 0.0121 µM) and the MIC90 [23] was 0.06 µg/mL (≈ 0.181 µM). The Activity [24] was 98%, the Activity [25] was 2% and the MIC50 [26] was 0.004 µg/mL (≈ 0.0121 µM). For the same compound, the MIC90 [26] was 0.06 µg/mL (≈ 0.181 µM), the Activity [27] was 98% and the Activity [28] was 2%. It also gave an MIC50 [29] of 0.004 µg/mL (≈ 0.0121 µM), an MIC90 [29] of 0.06 µg/mL (≈ 0.181 µM) and an Activity [30] of 98%. For the same compound, the Activity [31] was 2%, the MIC50 [32] was 0.004 µg/mL (≈ 0.0121 µM) and the MIC90 [32] was 0.06 µg/mL (≈ 0.181 µM). It also gave an Activity [33] of 98%, an Activity [34] of 2% and an MIC50 [35] of 0.004 µg/mL (≈ 0.0121 µM). The Activity [36] was 100%, the Activity [37] was 0% and the MIC50 [38] was 0.016 µg/mL (≈ 0.0483 µM). For the same compound, the MIC90 [38] was 0.06 µg/mL (≈ 0.181 µM), the MIC50 [39] was 0.016 µg/mL (≈ 0.0483 µM) and the MIC90 [39] was 0.06 µg/mL (≈ 0.181 µM). The MIC50 [40] was 0.016 µg/mL (≈ 0.0483 µM), the MIC90 [40] was 0.06 µg/mL (≈ 0.181 µM) and the MIC50 [41] was 0.016 µg/mL (≈ 0.0483 µM). For the same compound, the MIC90 [41] was 0.06 µg/mL (≈ 0.181 µM), the MIC50 [42] was 0.016 µg/mL (≈ 0.0483 µM) and the MIC90 [42] was 0.06 µg/mL (≈ 0.181 µM). It also gave an MIC50 [43] of 0.016 µg/mL (≈ 0.0483 µM), an MIC90 [43] of 0.06 µg/mL (≈ 0.181 µM) and an MIC50 [44] of 0.06 µg/mL (≈ 0.181 µM). The MIC90 [44] was > 2 µg/mL, the Activity [45] was 82.6% and the Activity [46] was 16.5%. For the same compound, the MIC50 [47] was 0.06 µg/mL (≈ 0.181 µM) and the MIC90 [47] was > 2 µg/mL.
